Laboratory results reported in US20100221308A1, “ANTIMICROBIAL COMPOSITIONS AND USES THEREOF” (KANE BIOTECH INC., priority 2005, published 2010).
≈ marks a conversion by molar mass, not a printed value. Where two headings read alike, the source gives them in different places.

Columns and labels:
biofilm embedded E. coli = assay: In vitro microplate assay, growth of biofilm embedded bacteria (CFU); assay type: cell-based; details: FIG. 1: 50 μg/ml PS, 12.5 μg/ml CHX; 24 hours
Protocol: (§1) In vitro microplate assays were performed to determine the enhanced effects of protamine sulfate and chlorhexidine salt combination on the growth of biofilm embedded biofilm forming catheter-associated bacteria such as E. coli, Pseudomonas aeruginosa and Staphylococcus epidermidis. Overnight culture of each bacterial strain grown in Luria-Bertani (LB) or Tryptic Soy Broth (TSB) was used as inoculum. Bacteria were grown in Colony Forming Antigen (CFA) medium (for gram-negative) or in TSB (for gram-positive) on a 12-well microplate in the absence and presence of each test compound (PS or CHX) separately and together (PS+CHX) at 12.5, 25, or 50 μg/ml. The plate was incubated at 37° C. for 24 hours. Media containing planktonic cells in each well were removed gently and rinsed with sterile water. A known volume of water was added to each well and sonicated for 30 seconds. The transfer of contents of each well into a sterile tube and vortexing for a minute was followed by 10-fold serial dilution and plating on agar plates using a spreader. After incubating the plates at 37° C. for 24 hours, the colonies forming units (CFU) were counted.

[1] = tested on: biofilm embedded Pseudomonas aeruginosa; assay: as above; assay type: cell-based; details: FIG. 2: 25 μg/ml PS, 25 μg/ml CHX; 24 hours
Protocol: as §1

[2] = tested on: biofilm embedded Staphylococcus epidermidis; assay: as above; assay type: cell-based; details: FIG. 3: 12.5 μg/ml PS, 12.5 μg/ml CHX; 24 hours
Protocol: as §1, with “Bacteria were grown in Colony Forming Antigen (CFA) medium (for gram-negative) or in TSB (for gram-positive) on a 12-well microplate in the absence and presence of each test compound (PS or CHX) separately and together (PS+CHX) at 12.5, 25, or 50 μg/ml.” left out

E. coli = assay: MIC, broth microdilution assay; assay type: cell-based; details: agent alone, 24 h
K. pneumoniae = assay: MIC, broth microdilution assay; assay type: cell-based, Klebsiella pneumoniae; details: agent alone, 24 h
P. aeruginosa = assay: MIC, broth microdilution assay; assay type: cell-based, Pseudomonas aeruginosa; details: agent alone, 24 h
S. aureus = assay: MIC, broth microdilution assay; assay type: cell-based, Staphylococcus aureus; details: agent alone, 24 h
B. cereus = assay: MIC, broth microdilution assay; assay type: cell-based, Bacillus cereus; details: agent alone, 24 h
S. thermophilus = assay: MIC, broth microdilution assay; assay type: cell-based, Streptococcus thermophilus; details: agent alone, 24 h
L. monocytogens = assay: MIC, broth microdilution assay; assay type: cell-based, Listeria monocytogenes; details: agent alone, 24 h
C. perfringens = assay: microbe, parasite or virus in culture; assay type: cell-based, Clostridium perfringens; details: 24 h
A. naeslundii ATCC 12104 = assay: MIC for oral bacteria, broth microdilution assay; assay type: cell-based; details: agent alone, 24 h
Protocol: (§2) The minimum inhibitory concentrations (MICs) of chlorhexidine (CHX) and protamine sulfate (PS) alone and CHX and PS combination for S. mutans, S. sobrinus and A. naeslundii were determined using a broth microdilution assay in 96-well microtiter plate as described previously (Amsterdam, D. 1996., In: V. Loman, Ed., “Antibiotics in laboratory medicine”, p. 52-111, Williams and Wilkins, Baltimore, Md.). S. mutans and S. sobrinus were grown overnight at 37° C. with 100 rpm shaking in THYE broth supplemented with 0.01% hog gastric mucin, and A. naeslundii was grown in TSB-YK broth, and diluted to approximately 10^5 CFU/ml. […] Plates were incubated at 37° C. for 24 h and were read at 600 nm using a microtiter plate reader (Labsystems, Multiskan Ascent, Helsinki, Finland).

S. mutans UA 159 = assay: MIC for oral bacteria, broth microdilution assay; assay type: cell-based; details: agent alone, 24 h
Protocol: as §2

S. sobrinus HNG 909S = assay: MIC for oral bacteria, broth microdilution assay; assay type: cell-based; details: agent alone, 24 h
Protocol: as §2

## [H]/N=C(\N/C(=N/[H])NCCCCCCNC(=N)NC(=N)Nc1ccc(Cl)cc1)Nc1ccc(Cl)cc1 [CHX, chlorhexidine]
Biofilm embedded E. coli
  inhibition of growth of biofilm embedded organism (CFU), in words: more effective than protamine sulfate
[1]
  inhibition of growth of biofilm embedded organism (CFU), in words: more effective than protamine sulfate
[2]
  inhibition of growth of biofilm embedded organism (CFU), in words: more effective than protamine sulfate
E. coli; Escherichia coli, read-out: MIC
  MIC: 0.39 µg/mL (≈ 0.772 µM)
K. pneumoniae; Klebsiella pneumoniae, read-out: MIC
  MIC: 6.25 µg/mL (≈ 12.4 µM)
P. aeruginosa; Pseudomonas aeruginosa, read-out: MIC
  MIC: 12.5 µg/mL (≈ 24.7 µM)
S. aureus; Staphylococcus aureus, read-out: MIC
  MIC: 0.781 µg/mL (≈ 1.55 µM)
B. cereus; Bacillus cereus, read-out: MIC
  MIC: 3.12 µg/mL (≈ 6.18 µM)
S. thermophilus; Streptococcus thermophilus, read-out: MIC
  MIC: < 0.195 µg/mL
L. monocytogens; Listeria monocytogenes, read-out: MIC
  MIC: 3.12 µg/mL (≈ 6.18 µM)
C. perfringens; Clostridium perfringens
  MIC: 1.56 µg/mL (≈ 3.09 µM)
A. naeslundii ATCC 12104; Actinomyces naeslundii, ATCC12104, read-out: Minimum inhibitory concentration
  MIC: 50 µg/mL
S. mutans UA 159; Streptococcus mutans, UA159, read-out: Minimum inhibitory concentration
  MIC: 6.25 µg/mL
S. sobrinus HNG 909S; Streptococcus sobrinus, HNG909S, read-out: Minimum inhibitory concentration
  MIC: 1.56 µg/mL

## protamine sulfate [PS]
E. coli
  MIC: >100 µg/mL
K. pneumoniae
  MIC: >200 µg/mL
P. aeruginosa
  MIC: 200 µg/mL
S. aureus
  MIC: 200 µg/mL
B. cereus
  MIC: >200 µg/mL
S. thermophilus
  MIC: 200 µg/mL
L. monocytogens
  MIC: 200 µg/mL
C. perfringens; agent alone
  MIC: >200 µg/mL
A. naeslundii ATCC 12104
  Minimum inhibitory concentration: >200 µg/mL
S. mutans UA 159
  Minimum inhibitory concentration: >200 µg/mL
S. sobrinus HNG 909S
  Minimum inhibitory concentration: >200 µg/mL
